Experimental data taken from ChEMBL document CHEMBL4011590, “Structure-activity relationship studies on 3,5-dinitrophenyl tetrazoles as antitubercular agents” (Eur J Med Chem, 2017).

Key:
Staphylococcus aureus [1] = assay: Antibacterial activity against Staphylococcus aureus ATCC 6538 after 24 hrs by broth microdilution method; type: functional; settings: ATCC 6538, 24 h
Aspergillus fumigatus [2] = assay: Antifungal activity against Aspergillus fumigatus 231 after 48 hrs by broth microdilution method; type: functional; settings: Aspergillus fumigatus, 231, 48 h
Lichtheimia corymbifera [3] = assay: Antifungal activity against Absidia corymbifera 272 after 24 hrs by broth microdilution method; type: functional; settings: Lichtheimia corymbifera, 272, 24 h
Mycobacterium avium [4] = assay: Antimycobacterial activity against Mycobacterium avium CNCTC My 330/80 after 21 days by micromethod; type: functional; settings: CNCTC My 330/80, 504 h
Nakaseomyces glabratus [5] = assay: Antifungal activity against Candida glabrata 20/I after 48 hrs by broth microdilution method; type: functional
[6] = system: Mycobacterium tuberculosis; assay: Antimycobacterial activity against Mycobacterium tuberculosis H37Rv CNCTC My 331/88 after 21 days by micromethod; type: functional; settings: H37Rv CNCTC My 331/88, 504 h
Staphylococcus aureus [7] = assay: Antibacterial activity against methicillin-resistant Staphylococcus aureus HK5996/08 after 24 hrs by broth microdilution method; type: functional; settings: HK5996/08, 24 h
Mycobacterium kansasii [8] = assay: Antimycobacterial activity against Mycobacterium kansasii isolate 6509/96 after 14 days by micromethod; type: functional; settings: isolate 6509/96, 336 h
[9] = system: Staphylococcus epidermidis; assay: Antibacterial activity against Staphylococcus epidermidis HK6966/08 after 24 hrs by broth microdilution method; type: functional; settings: HK6966/08, 24 h
Lichtheimia corymbifera [10] = assay: Antifungal activity against Absidia corymbifera 272 after 48 hrs by broth microdilution method; type: functional; settings: Lichtheimia corymbifera, 272, 48 h
Klebsiella pneumoniae [11] = assay: Antibacterial activity against Klebsiella pneumoniae HK11750/08 after 48 hrs by broth microdilution method; type: functional; settings: HK11750/08, 48 h
Pseudomonas aeruginosa [12] = assay: Antibacterial activity against Pseudomonas aeruginosa ATCC 9027 after 24 hrs by broth microdilution method; type: functional; settings: ATCC 9027, 24 h
Pichia kudriavzevii [13] = assay: Antifungal activity against Candida krusei E28 after 48 hrs by broth microdilution method; type: functional; settings: E28, 48 h
Pichia kudriavzevii [14] = assay: Antifungal activity against Candida krusei E28 after 24 hrs by broth microdilution method; type: functional; settings: E28, 24 h
Mycobacterium kansasii [15] = assay: Antimycobacterial activity against Mycobacterium kansasii CNCTC My 235/80 after 7 days by micromethod; type: functional; settings: CNCTC My 235/80, 168 h
Candida tropicalis [16] = assay: Antifungal activity against Candida tropicalis 156 after 24 hrs by broth microdilution method; type: functional; settings: Candida tropicalis, 156, 24 h
Escherichia coli [17] = assay: Antibacterial activity against Escherichia coli ATCC 8739 after 24 hrs by broth microdilution method; type: functional; settings: ATCC 8739, 24 h
Candida tropicalis [18] = assay: Antifungal activity against Candida tropicalis 156 after 48 hrs by broth microdilution method; type: functional; settings: Candida tropicalis, 156, 48 h
[19] = system: Trichophyton mentagrophytes; assay: Antifungal activity against Trichophyton mentagrophytes 445 after 120 hrs by broth microdilution method; type: functional; settings: Trichophyton mentagrophytes, 445, 120 h
Escherichia coli [20] = assay: Antibacterial activity against Escherichia coli ATCC 8739 after 48 hrs by broth microdilution method; type: functional; settings: ATCC 8739, 48 h
Staphylococcus aureus [21] = assay: Antibacterial activity against methicillin-resistant Staphylococcus aureus HK5996/08 after 48 hrs by broth microdilution method; type: functional; settings: HK5996/08, 48 h
Mycobacterium kansasii [22] = assay: Antimycobacterial activity against Mycobacterium kansasii CNCTC My 235/80 after 14 days by micromethod; type: functional; settings: CNCTC My 235/80, 336 h
Mycobacterium kansasii [23] = assay: Antimycobacterial activity against Mycobacterium kansasii CNCTC My 235/80 after 21 days by micromethod; type: functional; settings: CNCTC My 235/80, 504 h
Candida albicans [24] = assay: Antifungal activity against Candida albicans ATCC 44859 after 48 hrs by broth microdilution method; type: functional; settings: ATCC 44859, 48 h
Mycobacterium kansasii [25] = assay: Antimycobacterial activity against Mycobacterium kansasii isolate 6509/96 after 21 days by micromethod; type: functional; settings: isolate 6509/96, 504 h
[26] = system: Trichophyton mentagrophytes; assay: Antifungal activity against Trichophyton mentagrophytes 445 after 72 hrs by broth microdilution method; type: functional; settings: Trichophyton mentagrophytes, 445, 72 h
Nakaseomyces glabratus [27] = assay: Antifungal activity against Candida glabrata 20/I after 24 hrs by broth microdilution method; type: functional
Trichosporon asahii [28] = assay: Antifungal activity against Trichosporon asahii 1188 after 24 hrs by broth microdilution method; type: functional; settings: Trichosporon asahii, 1188, 24 h
Pseudomonas aeruginosa [29] = assay: Antibacterial activity against Pseudomonas aeruginosa ATCC 9027 after 48 hrs by broth microdilution method; type: functional; settings: ATCC 9027, 48 h
Klebsiella pneumoniae [30] = assay: Antibacterial activity against extended spectrum beta-lactamase producing Klebsiella pneumoniae HK14368/08 after 24 hrs by broth microdilution method; type: functional; settings: HK14368/08, 24 h
Aspergillus fumigatus [31] = assay: Antifungal activity against Aspergillus fumigatus 231 after 24 hrs by broth microdilution method; type: functional; settings: Aspergillus fumigatus, 231, 24 h
[32] = system: Staphylococcus epidermidis; assay: Antibacterial activity against Staphylococcus epidermidis HK6966/08 after 48 hrs by broth microdilution method; type: functional; settings: HK6966/08, 48 h
Candida albicans [33] = assay: Antifungal activity against Candida albicans ATCC 44859 after 24 hrs by broth microdilution method; type: functional; settings: ATCC 44859, 24 h
Mycobacterium kansasii [34] = assay: Antimycobacterial activity against Mycobacterium kansasii isolate 6509/96 after 7 days by micromethod; type: functional; settings: isolate 6509/96, 168 h
Enterococcus sp. [35] = assay: Antibacterial activity against Enterococcus sp. HK14365/08 after 48 hrs by broth microdilution method; type: functional; settings: HK14365/08, 48 h
Klebsiella pneumoniae [36] = assay: Antibacterial activity against Klebsiella pneumoniae HK11750/08 after 24 hrs by broth microdilution method; type: functional; settings: HK11750/08, 24 h
Trichosporon asahii [37] = assay: Antifungal activity against Trichosporon asahii 1188 after 48 hrs by broth microdilution method; type: functional; settings: Trichosporon asahii, 1188, 48 h
Enterococcus sp. [38] = assay: Antibacterial activity against Enterococcus sp. HK14365/08 after 24 hrs by broth microdilution method; type: functional; settings: HK14365/08, 24 h
Mycobacterium avium [39] = assay: Antimycobacterial activity against Mycobacterium avium CNCTC My 330/80 after 14 days by micromethod; type: functional; settings: CNCTC My 330/80, 336 h
[40] = system: Mycobacterium tuberculosis; assay: Antimycobacterial activity against Mycobacterium tuberculosis H37Rv CNCTC My 331/88 after 14 days by micromethod; type: functional; settings: H37Rv CNCTC My 331/88, 336 h
Klebsiella pneumoniae [41] = assay: Antibacterial activity against extended spectrum beta-lactamase producing Klebsiella pneumoniae HK14368/08 after 48 hrs by broth microdilution method; type: functional; settings: HK14368/08, 48 h
Staphylococcus aureus [42] = assay: Antibacterial activity against Staphylococcus aureus ATCC 6538 after 48 hrs by broth microdilution method; type: functional; settings: ATCC 6538, 48 h
CHO-K1 = assay: Cytotoxicity against CHOK1 cells after 24 hrs by MTT assay; type: cell-based; settings: Cricetulus griseus, CHO-K1, 24 h

Cn1nnnc1SCn1nnc(-c2cc([N+](=O)[O-])cc([N+](=O)[O-])c2)n1
2 µM: MIC99 [6] | MIC99 [40]
16 µM: MIC99 (Mycobacterium kansasii [15]) | MIC99 (Mycobacterium kansasii [34])
> 500 µM: MIC (Staphylococcus aureus [1]) | MIC (Aspergillus fumigatus [2]) | MIC (Lichtheimia corymbifera [3]) | MIC (Nakaseomyces glabratus [5]) | MIC (Staphylococcus aureus [7]) | MIC (Lichtheimia corymbifera [10]) | MIC (Klebsiella pneumoniae [11]) | MIC (Pseudomonas aeruginosa [12]) | MIC (Pichia kudriavzevii [13]) | MIC (Pichia kudriavzevii [14]) | MIC (Candida tropicalis [16]) | MIC (Escherichia coli [17]) | MIC (Candida tropicalis [18]) | MIC [19] | MIC (Escherichia coli [20]) | MIC (Staphylococcus aureus [21]) | MIC (Candida albicans [24]) | MIC [26] | MIC (Nakaseomyces glabratus [27]) | MIC (Trichosporon asahii [28]) | MIC (Pseudomonas aeruginosa [29]) | MIC (Klebsiella pneumoniae [30]) | MIC (Aspergillus fumigatus [31]) | MIC (Candida albicans [33]) | MIC (Klebsiella pneumoniae [36]) | MIC (Trichosporon asahii [37]) | MIC (Klebsiella pneumoniae [41]) | MIC (Staphylococcus aureus [42])
125 µM: MIC [9] | MIC [32]
32 µM: MIC99 (Mycobacterium avium [4]) | MIC99 (Mycobacterium kansasii [8]) | MIC99 (Mycobacterium kansasii [22]) | MIC99 (Mycobacterium kansasii [23]) | MIC99 (Mycobacterium kansasii [25]) | MIC99 (Mycobacterium avium [39])
500 µM: MIC (Enterococcus sp. [35]) | MIC (Enterococcus sp. [38])

CN[C@H](CC(C)C)C(=O)N[C@H]1C(=O)N[C@@H](CC(N)=O)C(=O)N[C@H]2C(=O)N[C@H]3C(=O)N[C@H](C(=O)N[C@H](C(=O)O)c4cc(O)cc(O)c4-c4cc3ccc4O)[C@H](O)c3ccc(c(Cl)c3)Oc3cc2cc(c3O[C@@H]2O[C@H](CO)[C@@H](O)[C@H](O)[C@H]2O[C@H]2C[C@](C)(N)[C@H](O)[C@H](C)O2)Oc2ccc(cc2Cl)[C@H]1O [VANCOMYCIN]
0.35 µM: MIC (Staphylococcus aureus [1]) | MIC (Staphylococcus aureus [7]) | MIC [9]
0.7 µM: MIC (Enterococcus sp. [38])

O=[N+]([O-])c1cc(Sc2nnnn2C2CCCCC2)cc([N+](=O)[O-])c1
1 µM: MIC99 [6] | MIC99 (Mycobacterium kansasii [8]) | MIC99 (Mycobacterium kansasii [15]) | MIC99 (Mycobacterium kansasii [22]) | MIC99 (Mycobacterium kansasii [23]) | MIC99 (Mycobacterium kansasii [25]) | MIC99 (Mycobacterium kansasii [34]) | MIC99 [40]
32 µM: MIC99 (Mycobacterium avium [4]) | MIC99 (Mycobacterium avium [39])
153 µM: IC50 (CHO-K1)

O=[N+]([O-])c1cc(Sc2nnnn2Cc2ccccc2)cc([N+](=O)[O-])c1
1 µM: MIC99 [40]
8 µM: MIC99 (Mycobacterium kansasii [15]) | MIC99 (Mycobacterium kansasii [22])
16 µM: MIC99 (Mycobacterium kansasii [23])
2 µM: MIC99 [6] | MIC99 (Mycobacterium kansasii [34])
32 µM: MIC99 (Mycobacterium avium [39])
4 µM: MIC99 (Mycobacterium kansasii [8]) | MIC99 (Mycobacterium kansasii [25])
62.5 µM: MIC99 (Mycobacterium avium [4])
127 µM: IC50 (CHO-K1)
